Measured values: patent US20240208952A1, “THIOPHENE GLP-1 RECEPTOR AGONIST AND USE THEREOF” (priority 2021, published 2024)

What was measured:
[1] = Metabolic stability in (human) liver microsomes; format: in vitro ADME; conditions: pH 7.4, 0.5 mg/mL microsomal protein, 37° C., 0-45 minutes, LC-MS/MS, read-out: LMS(t1/2 min)
Protocol: 1. Experimental design: test concentration: […]; control compound: testosterone; culture conditions: cultured at 37° C. for 0, 5, 15, 30, 45 minutes; method of determination: LC-MS/MS; calculation method: T1/2=0.693/K (K is the rate constant of the ln [concentration] vs. incubation time profile), Clint=(0.693/T1/2)×(1/(microsomal protein concentration (0.5 mg/mL)))×scaling factor.
2. Experimental method: 1. preheating 0.1 M K-buffer, […], pH=7.4; 2. test solutions of test compound and reference compound, 500 μM additive solution: 5 μL of 10 mM stock solution was added to 95 μL can; […] and 18.75 μL of 20 Mg/mL liver microsome were added to 479.75 μL of K/Mg buffer; 3. 3×NADPH stock solution (6 mM, 5 mg/mL) was prepared by dissolving NADPH in the buffer solution; 4. 30 μL of 1.5 μM additive solution containing 0.75 mg/mL microsomal solution was distributed to the plates designated for different time points (0, 5, 15, 30, 45 minutes); 5. at 0 min, 150 μL of ACN containing IS was added to the wells of the plate, followed by addition of 15 μL of NADPH stock solution (6 mM, step 3); 6. all other plates were pre-incubated at 37° C. for 5 minutes; 7. adding 15 μL of NADPH stock solution to the plate to start the reaction and timing; 8. 150 μL of ACN containing IS was added to the wells of the corresponding plates to stop the reaction at 5 min, 15 min, 30 min and 45 min, respectively; 9. after quenching, the plates were shaken on a shaker for 10 minutes (600 rpm/min) and then centrifuged at 6000 rpm for 15 minutes; 10. 80 μL of supernatant was transferred from each well to a 96-well sample plate containing 140 μL water for LC/MS analysis.
Detection method: LC-MS/MS-11 (8050), internal standard: tolbutamide; MS conditions: positive ion ESI for testosterone and test compound, and negative ion ESI for tolbutamide; Mobile phases: mobile phase A is 0.1% FA in water, and mobile phase B is 0.1% FA in ACN; Column and specification: ACQUITY UPLC HSS T3 1.8 um 2.1*50 mm.

Human GLP-1R = biological target: T1, Human GLP-1R (Homo sapiens, UniProt P43220); assay: GLP-1R agonist activity, HTRF cAMP level test in 293A GFP-GLP-1R cells; format: cell-based
T1 construct: expressed in transfected cells
Protocol: GLP-1R-mediated agonist activity was determined by cell-based assays using a homogeneous time-resolved fluorescence (i.e., HTRF)-based cAMP detection kit, which measures the level of cAMP in cells. The method was a competitive immunoassay. It enabled direct pharmacological characterization of compounds acting on Gs-coupled receptors in adherent or suspending cells.
The standard curve of native cAMP or unlabeled cAMP produced by cells competed with d2-labeled cAMP red receptors to bind monoclonal anti-cAMP Eu3+ cryptate donors, and the specific signal was inversely proportional to the concentration of cAMP in standard or tested samples.
Human GLP-1R encoding sequence (NCBI reference sequence NP_002053.3) was subcloned into pEGFP-N1 (tsingke), and the cell line stably expressing the receptor was isolated.
The final DMSO concentration in the buffer mixture was determined to be 1% o.
Cells were collected from a T25 tissue culture flask and centrifuged at room temperature at 1000 rpm for 5 minutes. The cell precipitates were then re-suspended in 1 mL of the stimulating buffer. 20 μL sample of cell suspension was counted on a counter STAR IC 1000 to determine the cell viability and the cell count per mL. The remaining cell suspension was then regulated with the stimulating buffer to deliver 2000 living cells per well using a multi-channel pipette. 5 μL of the cell suspension was added to each well of the plate which already contained the compound. The plate was sealed and incubated at 37° C. with 5% CO2 for 30 minutes.
After 30 minutes of incubation, 5 μL of d2-labeled cAMP and 5 μL of anti-cAMP cryptate (both 1:20 diluted in the cell lysis buffer) were added to each well of the plate. The plate was then incubated at room temperature for 60 minutes, and the changes of HTRF signal were read with Tecan Spark reader: […] at 340 nm (excitation)/at 615 nm and 665 nm (emission). Raw data were converted into nM cAMP by interpolation from the cAMP standard curve, and the effect in percentage was determined relative to the saturated concentration of the complete agonist GLP-17˜37 (400 nM) contained in each plate. Determination of EC50 was performed based on the agonist dose-response curve, which was analyzed using a four-parameter logical dose-response equation with a curve fitting program.
The test data presented the results in the form of a geometric mean (EC50s) based on the number of repetition times.

hERG potassium channel = hERG potassium channel (Homo sapiens, UniProt Q12809); assay: Inhibition of hERG potassium channels, whole-cell patch clamp in HEK-hERG cells; conditions: HEK293 cells stably expressing hERG (HEK-hERG)
Protocol: The cell suspension was added to a small petri dish and placed on an inverted microscope stage.
Such a set of pulse programming was repeated every 15 seconds throughout the experiment.

T1 sequence (P43220 24-463): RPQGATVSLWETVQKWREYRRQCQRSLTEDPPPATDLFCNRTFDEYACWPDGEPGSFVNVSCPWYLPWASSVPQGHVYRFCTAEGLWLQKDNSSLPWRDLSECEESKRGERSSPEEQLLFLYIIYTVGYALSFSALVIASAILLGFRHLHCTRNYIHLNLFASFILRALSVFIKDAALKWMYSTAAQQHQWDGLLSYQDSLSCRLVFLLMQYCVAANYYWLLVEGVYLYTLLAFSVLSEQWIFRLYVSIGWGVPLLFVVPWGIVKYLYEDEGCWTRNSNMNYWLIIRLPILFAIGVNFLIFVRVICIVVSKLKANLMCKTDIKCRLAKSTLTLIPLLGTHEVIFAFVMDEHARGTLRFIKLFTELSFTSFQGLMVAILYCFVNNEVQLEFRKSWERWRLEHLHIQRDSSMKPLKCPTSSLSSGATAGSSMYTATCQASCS
hERG potassium channel, sequence (Q12809 whole entry): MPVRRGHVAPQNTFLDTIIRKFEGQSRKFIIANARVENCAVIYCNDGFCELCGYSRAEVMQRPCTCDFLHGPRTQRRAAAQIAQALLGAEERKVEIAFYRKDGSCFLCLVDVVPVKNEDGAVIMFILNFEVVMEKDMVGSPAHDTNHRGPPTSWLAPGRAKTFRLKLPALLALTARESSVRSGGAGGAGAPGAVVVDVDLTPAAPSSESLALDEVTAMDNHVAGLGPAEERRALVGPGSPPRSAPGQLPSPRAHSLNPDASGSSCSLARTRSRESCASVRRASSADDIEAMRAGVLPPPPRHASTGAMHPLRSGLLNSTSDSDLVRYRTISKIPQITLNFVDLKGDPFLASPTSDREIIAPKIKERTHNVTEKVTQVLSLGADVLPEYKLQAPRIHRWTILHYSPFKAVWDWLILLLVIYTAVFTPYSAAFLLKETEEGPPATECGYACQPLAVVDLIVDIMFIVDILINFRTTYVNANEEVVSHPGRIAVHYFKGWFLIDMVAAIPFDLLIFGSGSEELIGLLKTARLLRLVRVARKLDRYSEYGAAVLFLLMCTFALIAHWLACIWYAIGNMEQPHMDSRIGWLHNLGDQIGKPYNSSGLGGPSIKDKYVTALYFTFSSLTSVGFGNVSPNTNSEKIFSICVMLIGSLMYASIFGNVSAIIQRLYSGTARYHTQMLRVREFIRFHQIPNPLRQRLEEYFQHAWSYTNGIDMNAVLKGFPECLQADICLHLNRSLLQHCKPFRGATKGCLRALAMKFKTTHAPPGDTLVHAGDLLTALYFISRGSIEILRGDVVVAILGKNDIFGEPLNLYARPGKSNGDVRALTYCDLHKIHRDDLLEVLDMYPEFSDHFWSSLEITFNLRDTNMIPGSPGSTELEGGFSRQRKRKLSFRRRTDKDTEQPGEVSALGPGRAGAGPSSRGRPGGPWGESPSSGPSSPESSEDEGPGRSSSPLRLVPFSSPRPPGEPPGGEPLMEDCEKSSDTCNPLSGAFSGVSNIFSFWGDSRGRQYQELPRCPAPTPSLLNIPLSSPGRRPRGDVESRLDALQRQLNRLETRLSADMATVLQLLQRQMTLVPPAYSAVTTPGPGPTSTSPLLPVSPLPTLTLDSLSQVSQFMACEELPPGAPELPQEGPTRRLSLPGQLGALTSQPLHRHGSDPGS

CC(=O)c1cc(Cl)c(COc2cccc(C3CCN(Cc4nc5ccc(C(=O)O)cc5n4C[C@@H]4CCO4)CC3)n2)s1 [Compound 5, (S)-2-((4-(6-((5-acetyl-3-chlorothien-2-yl)methoxy)pyridin-2-yl)piperidin-1-yl)methyl)-1-(oxetan-2-ylmethyl)-1H-benzo[d]imidazole-6-carboxylic acid]
half-life at 1 μM [1]: 37.3 min | EC50 (Human GLP-1R): 0.56 nM

CC(=O)c1csc(COc2cccc(C3CCN(Cc4nc5ccc(C(=O)O)cc5n4C[C@@H]4CCO4)CC3)n2)c1 [Compound 2, (S)-2-((4-(6-((4-acetylthiophen-2-yl)methoxy)pyridin-2-yl)piperidin-1-yl)methyl)-1-(oxetan-2-ylmethyl)-1H-benzo[d]imidazole-6-carboxylic acid]
EC50 (Human GLP-1R): 88.8 nM

N#Cc1ccc(COc2cccc(C3CCN(Cc4nc5ccc(C(=O)O)cc5n4C[C@@H]4CCO4)CC3)n2)s1 [Compound 4, (S)-2-((4-(6-((5-Cyanothiophen-2-yl)methoxy)pyridin-2-yl)piperidin-1-yl)methyl)-1-(oxetan-2-ylmethyl)-1H-benzo[d]imidazole-6-carboxylic acid]
half-life at 1 μM [1]: 132 min | inhibition at 1 µM (hERG potassium channel): 14.2% | inhibition at 10 µM (hERG potassium channel): 72.2% | EC50 (Human GLP-1R): 1 nM

N#Cc1ccc(COc2ccc3c(n2)C2=C(COC3)CN(Cc3nc4ccc(C(=O)O)cc4n3C[C@@H]3CCO3)CC2)s1 [Compound 12, (S)-2-((2-((5-cyanothiophen-2-yl)methoxy)-5,8,10,11-tetrahydro-oxepino[4,3-b:6,5-c′]dipyridin-9(7H)-yl)methyl)-1-(oxetan-2-ylmethyl)-1H-benzo[d]imidazole-6-carboxylic acid]
half-life at 1 μM [1]: 59.8 min | EC50 (Human GLP-1R): 0.5 nM

O=C(O)c1ccc2nc(CN3CCC(c4cccc(OCc5cc6ccncc6s5)n4)CC3)n(C[C@@H]3CCO3)c2c1 [Compound 10, 1-(oxetan-2-ylmethyl)-2-((4-(6-(thieno[2,3-c]pyridin-2-ylmethoxy)pyridin-2-yl)piperidin-1-yl)methyl)-1H-benzo[d]imidazole-6-carboxylic acid]
half-life at 1 μM [1]: 22.5 min | EC50 (Human GLP-1R): 0.05 nM

CC(=O)c1cc(COc2cccc(C3CCN(Cc4nc5ccc(C(=O)O)cc5n4C[C@@H]4CCO4)CC3)n2)cs1 [Compound 3, (S)-2-((4-(6-((5-acetylthiophen-3-yl)methoxy)pyridin-2-yl)piperidin-1-yl)methyl)-1-(oxetan-2-ylmethyl)-1H-benzo[d]imidazole-6-carboxylic acid]
EC50 (Human GLP-1R): 121 nM

O=C(O)c1ccc2nc(CN3CCC(c4cccc(OCc5ccc(C(=O)C6CC6)s5)n4)CC3)n(C[C@@H]3CCO3)c2c1 [Compound 6, (S)-2-((4-(6-((5-(cyclopropanecarbonyl)thiophen-2-yl)methoxy)pyridin-2-yl)piperidin-1-yl)methyl)-1-(oxetan-2-ylmethyl)-1H-benzo[d]imidazole-6-carboxylic acid]
EC50 (Human GLP-1R): 0.03 nM

Cc1cc(C#N)sc1COc1cccc(C2CCN(Cc3nc4ccc(C(=O)O)cc4n3C[C@@H]3CCO3)CC2)n1 [Compound 11, (S)-2-((4-(6-((5-cyano-3-methylthiophen-2-yl)methoxy)pyridin-2-yl)piperidin-1-yl)methyl)-1-(oxetan-2-ylmethyl)-1H-benzo[d]imidazole-6-carboxylic acid]
EC50 (Human GLP-1R): 0.1 nM

N#Cc1sc(COc2cccc(C3CCN(Cc4nc5ccc(C(=O)O)cc5n4C[C@@H]4CCO4)CC3)n2)cc1Cl [Compound 8, (S)-2-((4-(6-((4-chloro-5-cyanothiophen-2-yl)methoxy)pyridin-2-yl)piperidin-1-yl)methyl)-1-(oxetan-2-ylmethyl)-1H-benzo[d]imidazole-6-carboxylic acid]
EC50 (Human GLP-1R): 0.05 nM

CC(=O)c1ccc(COc2cccc(C3CCN(Cc4nc5ccc(C(=O)O)cc5n4C[C@@H]4CCO4)CC3)n2)s1 [Compound 1, (S)-2-((4-(6-((5-acetylthiophen-2-yl)methoxy)pyridin-2-yl)piperidin-1-yl)methyl)-1-(oxetan-2-ylmethyl)-1H-benzo[d]imidazole-6-carboxylic acid]
half-life at 1 μM [1]: 115 min | inhibition at 1 µM (hERG potassium channel): 9.82% | inhibition at 10 µM (hERG potassium channel): 53.8% | EC50 (Human GLP-1R): 4.67 nM

O=C(O)c1ccc2nc(CN3CCC(c4cccc(OCc5ccc(-c6cncnc6)s5)n4)CC3)n(C[C@@H]3CCO3)c2c1 [Compound 13]
EC50 (Human GLP-1R): 0.47 nM

N#Cc1cc(Cl)c(COc2cccc(C3CCN(Cc4nc5ccc(C(=O)O)cc5n4C[C@@H]4CCO4)CC3)n2)s1 [Compound 7, (S)-2-((4-(6-((3-chloro-5-cyanothiophen-2-yl)methoxy)pyridin-2-yl)piperidin-1-yl)methyl)-1-(oxetan-2-ylmethyl)-1H-benzo[d]imidazole-6-carboxylic acid]
half-life at 1 μM [1]: 21.2 min | EC50 (Human GLP-1R): 0.02 nM

O=C(O)c1ccc2nc(CN3CCC(c4cccc(OCc5ccc(C(F)(F)F)s5)n4)CC3)n(C[C@@H]3CCO3)c2c1 [Compound 9, (S)-1-(oxetan-2-ylmethyl)-2-((4-(6-((5-(trifluoromethyl)thiophen-2-yl)methoxy)pyridin-2-yl)piperidin-1-yl)methyl)-1H-benzo[d]imidazole-6-carboxylic acid]
EC50 (Human GLP-1R): 0.08 nM
